Reference: paper PMC6503470, “Antibacterial Oligomeric Polyphenols from the Green Alga Cladophora socialis” (The Journal of Organic Chemistry, 2019)
Converted amounts (≈) assume the structure as drawn. Read-outs that look alike come from different tables or passages of the source.

Columns and labels:
[1] = test system: wild type Candida albicans (WTCA, ATCC 32354); assay: Antifungal MIC assay, wild type C. albicans; assay type: cell-based; conditions: ATCC32354, MIC90, values expressed as 95% confidence interval, read-out: Minimal inhibitory concentration, WTCA
[2] = test system: P. falciparum strain Dd2L; assay: Parasite proliferation assay, asexual blood-stage P. falciparum, SYBR Green; assay type: cell-based; conditions: Plasmodium falciparum
Procedure: Antimalarial activity was assessed using a standard parasite proliferation assay with asexual blood-stage P. falciparum and SYBR Green detection.[22] Screening media (complete media supplemented with 0.05% Albumax II but without human serum) and fresh O^+ erythrocytes (TSRI Normal Blood Donation) were used for cultures of P. falciparum strain Dd2L (gift from Dr. David Fidock, Colombia University). A Labcyte ECHO acoustic liquid handler transferred compounds into assay plates. The plates were inoculated (Multi-Flo; BioTek, VT) with parasitized erythrocytes and fresh erythrocytes prepared in screening media, resulting in a final parasitemia of 0.3% and hematocrit of 2.5%. A chamber with a low oxygen gas mixture at 37 °C was used to culture the assay plates for 72 h with daily gas exchanges. SYBR Green lysis buffer was added to the wells after incubation using a Multi-Flo liquid dispenser, and plates were incubated at room temperature for an additional 24 h to achieve optimal development of the fluorescence signal which was read by an Envision Multimode Reader (PerkinElmer, MA). The positive controls used were atovaquone (EC50 = 0.0006 μM) and artemisinin (EC50 = 0.03 μM).

[3] = Antibacterial MIC assay, Gram-negative panel; assay type: cell-based, Gram-negative bacteria (panel); conditions: one value for the whole panel of Gram-negative strains; read-out: Minimal inhibitory concentration, Gram–
[4] = test system: vancomycin-resistant Enterococcus faecium (VREF, ATCC 700221); assay: Antibacterial MIC assay, VREF; assay type: cell-based; conditions: ATCC700221, MIC90, values expressed as 95% confidence interval, read-out: Minimal inhibitory concentration, VREF
[5] = test system: methicillin-resistant Staphylococcus aureus (MRSA, ATCC 33591); assay: Antibacterial MIC assay, MRSA; assay type: cell-based; conditions: for MIC: Staphylococcus aureus, read-out: Minimal inhibitory concentration, MRSA
[6] = test system: amphotericin B-resistant C. albicans (ARCA, ATCC 90873); assay: Antifungal MIC assay, amphotericin B-resistant C. albicans; assay type: cell-based; conditions: Candida albicans, ATCC90873; MIC90; values expressed as 95% confidence interval; read-out: Minimal inhibitory concentration, ARCA
[7] = test system: Escherichia coli (EC, ATCC 25922); assay: Antibacterial MIC assay, E. coli; assay type: cell-based
[8] = test system: human kidney cells (HEK293T); assay: Cytotoxicity, human kidney cells; assay type: cell-based; conditions: at the compound's P. falciparum EC50; cell line not restated, HEK293T assumed
[9] = Cytotoxicity, human kidney cells; assay type: cell-based; conditions: human, HEK293T cells (human kidney cells); read-out: half maximal cytotoxicity concentration (CC50), HEK293T
[10] = test system: MDR Escherichia coli (MDREC, ATCC BAA-1743); assay: microbe, parasite or virus in culture; conditions: ATCCBAA1743, read-out: MIC, MDREC
[11] = positive controls, read-out: EC50, P. falciparum
[12] = MIC90, at least 90% inhibition of growth, values expressed as 95% confidence interval
[13] = ATCC25922, Gram– column, footnote e: tested only against E. coli, read-out: Minimal inhibitory concentration, Gram– (tested only against E. coli)
[14] = asexual blood stages, 72 h, 95% confidence interval, read-out: Half-maximal effective concentration, P. falciparum

| Structure (SMILES) | MIC [1] [µg/mL] | MIC [3] [µg/mL] | MIC [4] [µg/mL] | MIC [5, 12] [µg/mL] | MIC [6] [µg/mL] | EC50 [2, 14] [µg/mL] | other results |
| --- | --- | --- | --- | --- | --- | --- | --- |
| C[C@@H]1[C@H](O)[C@@H](C)/C=C/C=C/C=C/C=C/C=C/C=C/C=C/[C@H](O[C@@H]2O[C@H](C)[C@@H](O)[C@H](N)[C@@H]2O)C[C@@H]2O[C@](O)(C[C@@H](O)C[C@@H](O)[C@H](O)CC[C@@H](O)C[C@@H](O)CC(=O)O[C@H]1C)C[C@H](O)[C@H]2C(=O)O [amphotericin B, reference compound] | 16 ± 1 (≈ 17.3 µM) |  |  |  |  |  |  |
| O=C1C(O)=C([C@H]2CC[C@H](c3ccc(Cl)cc3)CC2)C(=O)c2ccccc21 [atovaquone, reference compound] |  |  |  |  |  |  | EC50 [2, 11]: 0.6 nM |
| Oc1ccc(-c2ccc(O)c(O)c2)cc1O [compound 3, 3,4,3′,4′-tetrahydroxy-1,1′-biphenyl] | > 50 | > 50 | > 50 | > 50 | > 50 |  |  |
| O=c1oc2c(O)cc(Oc3ccc(Oc4ccc(Oc5ccc(Oc6ccc(Oc7ccc(Oc8ccc(Oc9ccc(Oc%10ccc(Oc%11ccc(Oc%12ccc(Oc%13ccc(-c%14ccc(O)c(O)c%14)cc%13O)cc%12O)cc%11O)cc%10O)cc9O)cc8O)cc7O)cc6O)cc5O)cc4O)cc3O)cc2c2cc(O)c(O)cc12 [compound 12, α-[(4,8,9-trihydroxy-2-benzo[c]chromen-6-on-2-yl)oxy]-ω-[3,4-dihydroxyphenyl]undeca[oxy(2-hydroxyphen-4-yl)]] | > 50 |  | > 50 |  | > 50 |  | MIC [7, 13]: > 50 µg/mL |
| CN[C@H](CC(C)C)C(=O)N[C@H]1C(=O)N[C@@H](CC(N)=O)C(=O)N[C@H]2C(=O)N[C@H]3C(=O)N[C@H](C(=O)N[C@H](C(=O)O)c4cc(O)cc(O)c4-c4cc3ccc4O)[C@H](O)c3ccc(c(Cl)c3)Oc3cc2cc(c3O[C@@H]2O[C@H](CO)[C@@H](O)[C@H](O)[C@H]2O[C@H]2C[C@](C)(N)[C@H](O)[C@H](C)O2)Oc2ccc(cc2Cl)[C@H]1O [vancomycin, reference compound] |  |  |  |  |  |  | MIC [5]: < 4 µg/mL |
| C[C@@H]1CC[C@H]2[C@@H](C)C(=O)O[C@@H]3O[C@@]4(C)CC[C@@H]1[C@]32OO4 [artemisinin, reference compound] |  |  |  |  |  |  | EC50 [2, 11]: 30 nM |
| O=c1oc2c(O)cc(Oc3ccc(Oc4ccc(Oc5ccc(Oc6ccc(Oc7ccc(Oc8ccc(Oc9ccc(Oc%10ccc(Oc%11ccc(Oc%12ccc(-c%13ccc(O)c(O)c%13)cc%12O)cc%11O)cc%10O)cc9O)cc8O)cc7O)cc6O)cc5O)cc4O)cc3O)cc2c2cc(O)c(O)cc12 [compound 11, α-[(4,8,9-trihydroxy-2-benzo[c]chromen-6-on-2-yl)oxy]-ω-[3,4-dihydroxyphenyl]deca[oxy(2-hydroxyphen-4-yl)]] | > 50 | > 50 | > 50 |  | > 50 |  |  |
| O=c1oc2c(O)cc(Oc3ccc(Oc4ccc(Oc5ccc(Oc6ccc(Oc7ccc(Oc8ccc(Oc9ccc(-c%10ccc(O)c(O)c%10)cc9O)cc8O)cc7O)cc6O)cc5O)cc4O)cc3O)cc2c2cc(O)c(O)cc12 [compound 9, α-[(4,8,9-trihydroxy-2-benzo[c]chromen-6-on-2-yl)oxy]-ω-[3,4-dihydroxyphenyl]hepta[oxy(2-hydroxyphen-4-yl)]] | > 50 | > 50 | > 50 | 13 to 49 (≈ 11.7 to 44.2 µM) | > 50 | > 2 | Minimal inhibitory concentration, MRSA [5, 12]: 14 ± 3 µg/mL (≈ 12.6 µM) |
| Oc1ccc(Oc2ccc(Oc3ccc(Oc4ccc(Oc5ccc(Oc6ccc(Oc7ccc(Oc8ccc(Oc9ccc(-c%10ccc(O)c(O)c%10)cc9O)cc8O)cc7O)cc6O)cc5O)cc4O)cc3O)cc2O)cc1O [compound 7, α-hydro-ω-[3,4-dihydroxyphenyl]nona[oxy(2-hydroxyphen-4-yl)]] | > 50 | > 50 | > 50 |  | > 50 | > 2 |  |
| O=c1oc2c(O)cc(Oc3ccc(Oc4ccc(Oc5ccc(Oc6ccc(Oc7ccc(Oc8ccc(Oc9ccc(Oc%10ccc(Oc%11ccc(-c%12ccc(O)c(O)c%12)cc%11O)cc%10O)cc9O)cc8O)cc7O)cc6O)cc5O)cc4O)cc3O)cc2c2cc(O)c(O)cc12 [compound 10, α-[(4,8,9-trihydroxy-2-benzo[c]chromen-6-on-2-yl)oxy]-ω-[3,4-dihydroxyphenyl]nona[oxy(2-hydroxyphen-4-yl)]] | > 50 | > 50 | > 50 |  | > 50 | > 2 |  |
| Oc1ccc(Oc2ccc(Oc3ccc(Oc4ccc(Oc5ccc(Oc6ccc(Oc7ccc(Oc8ccc(-c9ccc(O)c(O)c9)cc8O)cc7O)cc6O)cc5O)cc4O)cc3O)cc2O)cc1O [compound 6, α-hydro-ω-[3,4-dihydroxyphenyl]octa[oxy(2-hydroxyphen-4-yl)]] | 46 ± 13 (≈ 47.2 µM) | > 50 | > 50 | 1.4 (≈ 1.44 µM) | 46 ± 9 (≈ 47.2 µM) | > 2 | Minimal inhibitory concentration, MRSA [5, 12]: 1.4 ± 0.3 µg/mL (≈ 1.44 µM) |
| O=c1oc2c(O)cc(Oc3ccc(-c4ccc(O)c(O)c4)cc3O)cc2c2c(O)c(O)ccc12 [compound 5, 4,9,10-trihydroxy-2-[(3,3′,4′-trihydroxy-(1,1′-biphenyl)-4-yl)oxy]benzo[c]chromen-6-one] | > 50 | > 50 | > 50 | 13 to 49 (≈ 28.2 to 106 µM) | > 50 | 1.9 ± 0.2 | toxicity at the P. falciparum EC50 values [8]: no toxicity; CC50 [9]: 4.5 µg/mL (≈ 9.77 µM); Minimal inhibitory concentration, MRSA [5, 12]: 13 ± 2 µg/mL (≈ 28.2 µM) |
| O=C1CN(/N=C/c2ccc([N+](=O)[O-])o2)C(=O)N1 [nitrofurantoin] |  |  |  |  |  |  | MIC [10]: 14 ± 1 µg/mL (≈ 58.8 µM) |
| O=C(N[C@H](CO)[C@H](O)c1ccc([N+](=O)[O-])cc1)C(Cl)Cl [chloramphenicol, reference compound] |  |  | < 8 |  |  |  | MIC ([7]; ATCC25922, positive control, read-out: MIC, EC): < 8 µg/mL |
| O=c1oc2cc(O)c(O)cc2c2cc(O)c(O)cc12 [compound 4, 2,3,8,9-tetrahydroxybenzo[c]chromen-6-one] | > 50 | > 50 | > 50 | > 50 | > 50 | 0.7 ± 0.1 | toxicity at the P. falciparum EC50 values [8]: no toxicity; CC50 [9]: 9.4 µg/mL (≈ 36.1 µM) |
| O=c1oc2c(O)cc(Oc3ccc(Oc4ccc(Oc5ccc(Oc6ccc(Oc7ccc(Oc8ccc(Oc9ccc(Oc%10ccc(-c%11ccc(O)c(O)c%11)cc%10O)cc9O)cc8O)cc7O)cc6O)cc5O)cc4O)cc3O)cc2c2cc(O)c(O)cc12 [compound 8, α-[(4,8,9-trihydroxy-2-benzo[c]chromen-6-on-2-yl)oxy]-ω-[3,4-dihydroxyphenyl]octa[oxy(2-hydroxyphen-4-yl)]] | > 50 |  | > 50 | 13 to 49 (≈ 10.7 to 40.3 µM) | > 50 | > 2 | MIC [7, 13]: > 50 µg/mL; Minimal inhibitory concentration, MRSA [5, 12]: 25 ± 3 µg/mL (≈ 20.5 µM) |
